Source: publication doi:10.1101/2024.09.05.611349v1 (biorxiv, 2024)
≈ marks a conversion by molar mass, not a printed value. Read-outs that look alike come from different tables or passages of the source. Blank lines part the entries; values can stand above or below the compound they belong to.

Experiments:
Assay in all cases: microbe, parasite or virus in culture
[1] = test system: Enterococcus faecium EFM 15-6; set-up: species or system gram-positive clinical isolates; settings: Enterococcus faecium
[2] = test system: Enterococcus faecium EFM 15-1; set-up: species or system gram-positive clinical isolates; settings: Enterococcus faecium
[3] = test system: Staphylococcus epidermidis MRSE 17-1; set-up: species or system gram-positive clinical isolates; settings: Staphylococcus epidermidis, MRSE
[4] = test system: Staphylococcus epidermidis MRSE 15-78; set-up: species or system gram-positive clinical isolates; settings: Staphylococcus epidermidis, MRSE
[5] = test system: Enterococcus faecalis EFA 15-60; set-up: species or system gram-positive clinical isolates; settings: Enterococcus faecalis
[6] = test system: Staphylococcus aureus MRSA 15-2; set-up: species or system gram-positive clinical isolates; settings: Staphylococcus aureus, MRSA
[7] = test system: Enterococcus faecium EFM 15-11; set-up: species or system gram-positive clinical isolates; settings: Enterococcus faecium
[8] = test system: Enterococcus faecalis EFA 15-66; set-up: species or system gram-positive clinical isolates; settings: Enterococcus faecalis
[9] = test system: Staphylococcus aureus MRSA 17-4; set-up: species or system gram-positive clinical isolates; settings: Staphylococcus aureus, MRSA
[10] = test system: Enterococcus faecalis EFA 15-55; set-up: species or system gram-positive clinical isolates; settings: Enterococcus faecalis
[11] = test system: Staphylococcus epidermidis MRSE 17-3; set-up: species or system gram-positive clinical isolates; settings: Staphylococcus epidermidis, MRSE
[12] = test system: Staphylococcus epidermidis MRSE 15-1; set-up: species or system gram-positive clinical isolates; settings: Staphylococcus epidermidis, MRSE
[13] = test system: Staphylococcus aureus MSSA 15-6; set-up: species or system gram-positive clinical isolates; settings: Staphylococcus aureus, MSSA
[14] = test system: Enterococcus faecium EFM 15-52; set-up: species or system gram-positive clinical isolates; settings: Enterococcus faecium
[15] = test system: Enterococcus faecalis EFA 15-57; set-up: species or system gram-positive clinical isolates; settings: Enterococcus faecalis
[16] = test system: Staphylococcus aureus MSSA 15-2; set-up: species or system gram-positive clinical isolates; settings: Staphylococcus aureus, MSSA
[17] = test system: Staphylococcus aureus MSSA 16-2; set-up: species or system gram-positive clinical isolates; settings: Staphylococcus aureus, MSSA
[18] = test system: Enterococcus faecium EFM 15-9; set-up: species or system gram-positive clinical isolates; settings: Enterococcus faecium
[19] = test system: Staphylococcus epidermidis MRSE 15-81; set-up: species or system gram-positive clinical isolates; settings: Staphylococcus epidermidis, MRSE
[20] = test system: Staphylococcus aureus MRSA 16-1; set-up: species or system gram-positive clinical isolates; settings: Staphylococcus aureus, MRSA
[21] = test system: Enterococcus faecalis EFA 15-58; set-up: species or system gram-positive clinical isolates; settings: Enterococcus faecalis
[22] = test system: Enterococcus faecium EFM 15-8; set-up: species or system gram-positive clinical isolates; settings: Enterococcus faecium
[23] = test system: Staphylococcus epidermidis MSSE 15-3; set-up: species or system gram-positive clinical isolates; settings: Staphylococcus epidermidis, MSSE153, read-out: MIC(μg/ml) / 1b
[24] = test system: Staphylococcus epidermidis MSSE 15-2; set-up: species or system gram-positive clinical isolates; settings: Staphylococcus epidermidis, MSSE152, read-out: MIC(μg/ml) / 1b
S. aureus ATCC 29213 = settings: Staphylococcus aureus, ATCC29213, read-out: MIC (µg/mL)
[25] = read-out: MIC(μg/ml) / vancomycin

- MIC ([1]; EFM156, read-out: MIC(μg/ml) / vancomycin): 1 µg/mL (≈ 0.69 µM)
- MIC ([2]; EFM151, read-out: MIC(μg/ml) / vancomycin): 1 µg/mL (≈ 0.69 µM)
- MIC [3, 25]: 1 µg/mL (≈ 0.69 µM)
- MIC [4, 25]: 1 µg/mL (≈ 0.69 µM)
- MIC ([5]; EFA1560, read-out: MIC(μg/ml) / vancomycin): 8 µg/mL (≈ 5.52 µM)
- MIC [6, 25]: 2 µg/mL (≈ 1.38 µM)
- MIC ([7]; EFM1511, read-out: MIC(μg/ml) / vancomycin): 0.5 µg/mL (≈ 0.345 µM)
- MIC ([8]; EFA1566, read-out: MIC(μg/ml) / vancomycin): 2 µg/mL (≈ 1.38 µM)
- MIC [9, 25]: 1 µg/mL (≈ 0.69 µM)
- MIC ([10]; EFA1555, read-out: MIC(μg/ml) / vancomycin): 0.5 µg/mL (≈ 0.345 µM)
- MIC [11, 25]: 2 µg/mL (≈ 1.38 µM)
- MIC [12, 25]: 2 µg/mL (≈ 1.38 µM)
- MIC [13, 25]: 0.5 µg/mL (≈ 0.345 µM)
- MIC ([14]; EFM1552, read-out: MIC(μg/ml) / vancomycin): 2 µg/mL (≈ 1.38 µM)
- MIC ([15]; EFA1557, read-out: MIC(μg/ml) / vancomycin): 2 µg/mL (≈ 1.38 µM)
- MIC [16, 25]: 1 µg/mL (≈ 0.69 µM)
- MIC [17, 25]: 0.5 µg/mL (≈ 0.345 µM)
- MIC ([18]; EFM159, read-out: MIC(μg/ml) / vancomycin): 0.5 µg/mL (≈ 0.345 µM)
- MIC [19, 25]: 2 µg/mL (≈ 1.38 µM)
- MIC [20, 25]: 1 µg/mL (≈ 0.69 µM)
- MIC ([21]; EFA1558, read-out: MIC(μg/ml) / vancomycin): 0.5 µg/mL (≈ 0.345 µM)
- MIC ([22]; EFM158, read-out: MIC(μg/ml) / vancomycin): 0.5 µg/mL (≈ 0.345 µM)
Compound: CN[C@H](CC(C)C)C(=O)N[C@H]1C(=O)N[C@@H](CC(N)=O)C(=O)N[C@H]2C(=O)N[C@H]3C(=O)N[C@H](C(=O)N[C@H](C(=O)O)c4cc(O)cc(O)c4-c4cc3ccc4O)[C@H](O)c3ccc(c(Cl)c3)Oc3cc2cc(c3O[C@@H]2O[C@H](CO)[C@@H](O)[C@H](O)[C@H]2O[C@H]2C[C@](C)(N)[C@H](O)[C@H](C)O2)Oc2ccc(cc2Cl)[C@H]1O [vancomycin]

Compound: CCCCCOc1ccc(C(=O)NNC(=S)NC(C)=O)cc1 [1b, N-(2-(4-(n-pentoxy)benzoyl)hydrazine-1-carbonothioyl)acetamide]
- MIC ([1]; EFM156, read-out: MIC(μg/ml) / 1b): 2 µg/mL (≈ 6.18 µM)
- MIC ([2]; EFM151, read-out: MIC(μg/ml) / 1b): 8 µg/mL (≈ 24.7 µM)
- MIC ([3]; read-out: MIC(μg/ml) / 1b): 0.5 µg/mL (≈ 1.55 µM)
- MIC ([4]; read-out: MIC(μg/ml) / 1b): 2 µg/mL (≈ 6.18 µM)
- MIC ([5]; EFA1560, read-out: MIC(μg/ml) / 1b): 8 µg/mL (≈ 24.7 µM)
- MIC ([6]; read-out: MIC(μg/ml) / 1b): 4 µg/mL (≈ 12.4 µM)
- MIC [23]: 1 µg/mL (≈ 3.09 µM)
- MIC ([7]; EFM1511, read-out: MIC(μg/ml) / 1b): 4 µg/mL (≈ 12.4 µM)
- MIC ([8]; EFA1566, read-out: MIC(μg/ml) / 1b): 4 µg/mL (≈ 12.4 µM)
- MIC ([9]; read-out: MIC(μg/ml) / 1b): 2 µg/mL (≈ 6.18 µM)
- MIC ([10]; EFA1555, read-out: MIC(μg/ml) / 1b): 8 µg/mL (≈ 24.7 µM)
- MIC ([11]; read-out: MIC(μg/ml) / 1b): 1 µg/mL (≈ 3.09 µM)
- MIC ([12]; read-out: MIC(μg/ml) / 1b): 4 µg/mL (≈ 12.4 µM)
- MIC ([13]; read-out: MIC(μg/ml) / 1b): 2 µg/mL (≈ 6.18 µM)
- MIC ([14]; EFM1552, read-out: MIC(μg/ml) / 1b): 8 µg/mL (≈ 24.7 µM)
- MIC ([15]; EFA1557, read-out: MIC(μg/ml) / 1b): 4 µg/mL (≈ 12.4 µM)
- MIC [24]: 1 µg/mL (≈ 3.09 µM)
- MIC ([16]; read-out: MIC(μg/ml) / 1b): 2 µg/mL (≈ 6.18 µM)
- MIC ([17]; read-out: MIC(μg/ml) / 1b): 1 µg/mL (≈ 3.09 µM)
- MIC ([18]; EFM159, read-out: MIC(μg/ml) / 1b): 4 µg/mL (≈ 12.4 µM)
- MIC ([19]; read-out: MIC(μg/ml) / 1b): 0.5 µg/mL (≈ 1.55 µM)
- MIC ([20]; read-out: MIC(μg/ml) / 1b): 2 µg/mL (≈ 6.18 µM)
- MIC ([21]; EFA1558, read-out: MIC(μg/ml) / 1b): 4 µg/mL (≈ 12.4 µM)
- MIC ([22]; EFM158, read-out: MIC(μg/ml) / 1b): 2 µg/mL (≈ 6.18 µM)
- MIC (S. aureus ATCC 29213): 0.78 µg/mL (≈ 2.41 µM)
